Measured values: patent US9107926B2, “Mutant selectivity and combinations of a phosphoinositide 3-kinase inhibitor compound and chemotherapeutic agents for the treatment of cancer” (Genentech, Inc., priority 2012, dated 2015)

Assays:
Type in all cases: cell-based
H1568 = assay: CellTiter-Glo cell proliferation assay; settings: NCI-H1568, Lung(NSCLC), WT
LN-229 = assay: CellTiter-Glo cell proliferation assay; settings: Homo sapiens, Glioma, Helical-HET.545E > K
H596 = assay: CellTiter-Glo cell proliferation assay; settings: Homo sapiens, NCI-H596, Lung(NSCLC), Helical-HET.545E > K, HET.997L > P
cancer cell lines = assay: cell proliferation assays across cancer cell lines (FIGS. 1-3, 12)
Excerpt: EC50 values were established for the experiments.

H1703 = assay: CellTiter-Glo cell proliferation assay; settings: Homo sapiens, NCI-H1703, Lung(NSCLC), WT
MDA-MB-468 = assay: CellTiter-Glo cell proliferation assay; settings: Homo sapiens, Breast, PTEN

Cc1nc(-c2cn3c(n2)-c2ccc(-c4cnn(C(C)(C)C(N)=O)c4)cc2OCC3)n(C(C)C)n1 [GDC-0032, 2-(4-(2-(1-isopropyl-3-methyl-1H-1,2,4-triazol-5-yl)-5,6-dihydrobenzo[f]imidazo[1,2-d][1,4]oxazepin-9-yl)-1H-pyrazol-1-yl)-2-methylpropanamide]
EC50 (H1568): 10 µM | EC50 (LN-229): 3.41 µM | EC50 (H596): 0.058 µM | sensitivity of cancer cell lines with HER2 amplification versus those without HER2 amplification (cancer cell lines; EC50, cell proliferation assays): about 44 times | potency against PIK3CA mutant and HER2+ cells (comparison) (cancer cell lines; FIGS. 1A, 1B, 2A, 2B): more potent against PIK3CA mutant cells and HER2+ breast cancer cells than GDC-0941 | EC50 (H1703): 0.136 µM | EC50 (MDA-MB-468): 7.88 µM
